# Conditions: not given
row,melting point [°C],SMILES
1,154 to 157,"CN(C)CC(c1ccc(OC(=O)c2ccc3c(c2)OCO3)cc1)C1(O)CCCCC1 (stereo not shown) [1n, 4-(2-(Dimethylamino)-1-(1-hydroxycyclohexyl)ethyl)phenyl benzo[d][1,3]dioxole-5-carboxylate]"
2,168 to 172,"CN(C)CC(c1ccc(OC(=O)c2ccsc2)cc1)C1(O)CCCCC1 (stereo not shown) [1h, 4-(2-(Dimethylamino)-1-(1-hydroxycyclohexyl)ethyl)phenyl thiophene-3-carboxylate]"
3,159 to 162,"CN(C)CC(c1ccc(OC(=O)c2ccoc2)cc1)C1(O)CCCCC1 (stereo not shown) [1g, 4-(2-(Dimethylamino)-1-(1-hydroxycyclohexyl)ethyl)phenyl furan-3-carboxylate]"
4,180 to 182,"CN(C)CC(c1ccc(OC(=O)c2cccnc2)cc1)C1(O)CCCCC1 (stereo not shown) [1i, 4-(2-(Dimethylamino)-1-(1-hydroxycyclohexyl)ethyl)phenyl nicotinate]"
5,124 to 127,"CN(C)CC(c1ccc(OC(=O)CCc2ccccc2)cc1)C1(O)CCCCC1 (stereo not shown) [1l, 4-(2-(Dimethylamino)-1-(1-hydroxycyclohexyl)ethyl)phenyl 3-phenylpropanoate]"
6,159 to 162,"CN(C)CC(c1ccc(OC(=O)c2ccc3c(c2)OCCO3)cc1)C1(O)CCCCC1 (stereo not shown) [1o, 4-(2-(Dimethylamino)-1-(1-hydroxycyclohexyl)ethyl)phenyl 2,3-dihydrobenzo[b][1,4]dioxine-6-carboxylate]"
7,118 to 122,"CN(C)CC(c1ccc(OC(=O)C=Cc2ccccc2)cc1)C1(O)CCCCC1 (stereo not shown) [1m, 4-(2-(Dimethylamino)-1-(1-hydroxycyclohexyl)ethyl)phenyl cinnamate]"
8,133 to 137,"COc1ccc(C(=O)Oc2ccc(C(CN(C)C)C3(O)CCCCC3)cc2)cc1 (stereo not shown) [1k, 4-(2-(Dimethylamino)-1-(1-hydroxycyclohexyl)ethyl)phenyl 4-methoxybenzoate]"

# More lines, now with the values behind:
row,SMILES,melting point [°C]
1,"CN(C)CC(c1ccc(OC(=O)C(C)(C)C)cc1)C1(O)CCCCC1 (stereo not shown) [1a, 4-(2-(Dimethylamino)-1-(1-hydroxycyclohexyl)ethyl)phenyl pivalate]",131 to 133
2,"CC1CCC(C(=O)Oc2ccc(C(CN(C)C)C3(O)CCCCC3)cc2)CC1 (stereo not shown) [1c, 4-(2-(Dimethylamino)-1-(1-hydroxycyclohexyl)ethyl)phenyl 4-methylcyclohexanecarboxylate]",157 to 159
3,"CC(C)C1CCC(C(=O)Oc2ccc(C(CN(C)C)C3(O)CCCCC3)cc2)CC1 (stereo not shown) [1d, 4-(2-(Dimethylamino)-1-(1-hydroxycyclohexyl)ethyl)phenyl 4-isopropylcyclohexanecarboxylate]",149 to 152
4,"CN(C)CC(c1ccc(OC(=O)C2CCCCCC2)cc1)C1(O)CCCCC1 (stereo not shown) [1e, 4-(2-(Dimethylamino)-1-(1-hydroxycyclohexyl)ethyl)phenyl cycloheptanecarboxylate]",110 to 112
5,"CN(C)CC(c1ccc(OC(=O)C2CCCCC2)cc1)C1(O)CCCCC1 (stereo not shown) [1b, 4-(2-(Dimethylamino)-1-(1-hydroxycyclohexyl)ethyl)phenyl cyclohexanecarboxylate]",122 to 124

# Conditions: cited from earlier work
row,SMILES,bioavailability in humans
1,"CN(C)CC(c1ccc(O)cc1)C1(O)CCCCC1 (stereo not shown) [ODV, O-Desmethylvenlafaxine]",ca. 80%

# Design: method as in PMID 23517291, PMID 23334675
# Conditions: ODV as the succinate salt; cited from earlier work
row,SMILES,minimum effective dose [mg/day]
1,"CN(C)CC(c1ccc(O)cc1)C1(O)CCCCC1 (stereo not shown) [ODV, O-Desmethylvenlafaxine]",50

# Design: method as in PMID 21925241
# Conditions: rat, oral administration; cited from earlier work
row,SMILES,relative bioavailability compared with ODV
1,"COc1ccc(C(=O)Oc2ccc(C(CN(C)C)C3(O)CCCCC3)cc2)cc1 (stereo not shown) [1k, 4-(2-(Dimethylamino)-1-(1-hydroxycyclohexyl)ethyl)phenyl 4-methoxybenzoate]",higher relative bioavailability than ODV
